What all share (assay type): cell-based
The target in test [1] is T1, PAR2 (HT-29 cells) (Homo sapiens, UniProt P55085).
T1 construct: host or cells: HT-29
T1 sequence (P55085 26-397): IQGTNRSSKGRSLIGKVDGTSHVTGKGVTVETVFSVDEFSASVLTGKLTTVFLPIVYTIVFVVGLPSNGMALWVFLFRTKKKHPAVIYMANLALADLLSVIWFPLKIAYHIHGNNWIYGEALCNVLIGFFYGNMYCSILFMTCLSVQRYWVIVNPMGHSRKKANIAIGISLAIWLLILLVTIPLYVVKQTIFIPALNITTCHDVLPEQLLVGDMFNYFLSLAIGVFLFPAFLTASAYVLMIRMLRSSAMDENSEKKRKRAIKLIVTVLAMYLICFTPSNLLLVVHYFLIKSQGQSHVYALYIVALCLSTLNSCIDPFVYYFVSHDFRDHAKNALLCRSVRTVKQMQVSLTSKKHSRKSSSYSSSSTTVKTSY
The test can be described thus: Ca FLIPR TETRA assay, ANTAGONIST mode, activator 8 μM SLIGKV. Particulars: HT-29 cells, activator 8 μM SLIGKV; maximal antagonist concentration per Method (A: 0.1, 1 or 2 μM; B: 50 μM). In outline:
(§1)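 Fluorescent Ca2+ dye (calcium 5) loading of overnight-plated HT-29 cells preceded compound addition and a 30 min room-temperature incubation. Responses to the specified activator concentration were then read by FLIPR Tetra in the same plate.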

Test [2] deals with T1, PAR2 (HT-29 cells). The test can be described thus: Ca FLIPR TETRA assay, ANTAGONIST mode, activator 3.1 U/mL trypsin. To be noted: HT-29 cells, activator 3.1 U/mL trypsin; maximal antagonist concentration per Method (A: 0.1, 1 or 2 μM; B: 50 μM). In outline:
as §1

The test system of test [3] is Thrombin-stimulated Ca2+ response in HT-29 cells. The test can be described thus: Ca FLIPR TETRA assay, ANTAGONIST mode, activator 1 U/mL Thrombin. Particulars: HT-29 cells, activator 1 U/mL Thrombin. In outline:
as §1

The test system of test [4] is UTP-stimulated Ca2+ response in HT-29 cells. The test can be described thus: Ca FLIPR TETRA assay, ANTAGONIST mode, activator 0.6 μM UTP. Particulars: HT-29 cells, activator 0.6 μM UTP. A digest of the protocol:
as §1

As to `Cc1cn[nH]c1N1CCN(C(=O)c2cc3nc(-c4ccc(F)cc4)cc(C(C)(C)C)c3o2)C(C)(C)C1=O` [Example I-247], the IC50 – broadly, the point on the concentration scale where inhibition reaches its midpoint – in test [1] is 0.012 µM; in test [2], 0.02 µM; in test [3] (Homo sapiens), more than 2 µM; in test [4] (Homo sapiens) it was more than 2 µM.
Regarding `Cc1cc(N2CCN(C(=O)c3cc4nc(-c5ccc(F)cc5)cc(C(C)(C)C)c4o3)C(C)(C)C2=O)[nH]n1` [Example I-248], the IC50 in test [1] is 0.011 µM; in test [2], 0.041 µM; in test [3] (Homo sapiens), more than 2 µM; in test [4] (Homo sapiens), more than 2 µM.
Consider `CCCC(CC)c1cc(-c2ccc(F)cc2)nc2cc(C(=O)N3CCNC(=O)C3(C)C)oc12` (stereo not shown) [Example I-249], for which the IC50 was 0.004 µM in test [1], 0.011 µM in test [2], more than 2 µM in test [3] (Homo sapiens) and more than 2 µM in test [4] (Homo sapiens).
Take `Cc1n[nH]cc1N1CCN(C(=O)c2cc3nc(-c4ccc(F)cc4)cc(C(C)(C)C)c3o2)C(C)(C)C1=O` [Example I-250]: the IC50 in test [1] is 0.015 µM; in test [2], 0.051 µM; in test [3] (Homo sapiens), more than 2 µM; in test [4] (Homo sapiens), more than 2 µM.
`CC1(C)CCC(c2cc(-c3ccc(F)cc3)nc3cc(C(=O)N4CCNC(=O)C4(C)C)oc23)CC1` [Example I-251]: the IC50 in test [1], in test [2], in test [3] and in test [4] was more than 2 µM in each case.
In the case of `CC(C)(C)c1cc(-c2ccc(Cl)c(F)c2)nc2cc(C(=O)N3CCN(C(=O)c4ccc(C(=O)O)nc4)CC3(C)C)oc12` [Example I-252], the IC50 in test [1] was 0.12 µM; in test [2] it was 0.14 µM; in test [3] (Homo sapiens), more than 2 µM; in test [4] (Homo sapiens) it was more than 2 µM.
As to `CC(C)(C)c1cc(-c2ccc(Cl)c(F)c2)nc2cc(C(=O)N3CCN(c4cccc(C(=O)O[C@@H]5OC(C(=O)O)[C@@H](O)C(O)[C@@H]5O)n4)CC3(C)C)oc12` (stereo partly drawn) [Example I-253, (3S,5S,6S)-6-[6-[4-[7-tert-butyl-5-(4-chloro-3-fluoro-phenyl)furo[3,2-b]pyridine-2-carbonyl]-3,3-dimethyl-piperazin-1-yl]pyridine-2-carbonyl]oxy-3,4,5-trihydroxy-tetrahydropyran-2-carboxylic acid], the IC50 in test [1] is 0.0035 µM; in test [2], 0.0095 µM; in test [3] (Homo sapiens) it was more than 2 µM; in test [4] (Homo sapiens) it was more than 2 µM.
With `CC1(C)CCC(c2cc(C(C)(C)C)c3oc(C(=O)N4CCN(C(=O)C5CCC(C(=O)O)O5)CC4(C)C)cc3n2)CC1` (stereo not shown) [Example I-254], the IC50 was 0.0085 µM in test [1], 0.02 µM in test [2], more than 2 µM in test [3] (Homo sapiens) and more than 2 µM in test [4] (Homo sapiens).
Turning to `CC(C)(C)c1cc(-c2ccc(Cl)c(F)c2)nc2cc(C(=O)N3CCN(C(=O)C4CCC(C(=O)O)O4)CC3(C)C)oc12` (stereo not shown) [Example I-255], the IC50 in test [1] was 0.011 µM; in test [2], 0.013 µM; in test [3] (Homo sapiens) it was more than 2 µM; in test [4] (Homo sapiens) it was more than 2 µM.
With `CC(C)(C)c1cc(-c2ccc(Cl)cc2)nc2cc(C(=O)N3CCN(C(=O)C4CCC(C(=O)O)O4)CC3(C)C)oc12` (stereo not shown) [Example I-256], the IC50 is 0.022 µM in test [1], 0.031 µM in test [2], more than 2 µM in test [3] (Homo sapiens) and more than 2 µM in test [4] (Homo sapiens).
For `CC(C)(C)c1cc(-c2ccc(Cl)c(F)c2)nc2cc(C(=O)N3CCN(C(=O)c4cccnc4)CC3(C)C)oc12` [Example I-257], the IC50 in test [1] was 0.21 µM; in test [2] it was 0.18 µM; in test [3] it was more than 2 µM; in test [4], more than 2 µM.
`CC1(C)CCC(c2cc(C(C)(C)C)c3oc(C(=O)N4CCN(c5cn[nH]c5)CC4(C)C)cc3n2)CC1` [Example I-258]: the IC50 in test [1] is 0.023 µM; in test [2], 0.017 µM; in test [3] (Homo sapiens), more than 2 µM; in test [4] (Homo sapiens), more than 2 µM.
In the case of `CC(C)(C)c1cc(-c2ccc(Cl)c(F)c2)nc2cc(C(=O)N3CCN(c4cn[nH]c4)CC3(C)C)oc12` [Example I-259], the IC50 in test [1] was 0.008 µM; in test [2], 0.0079 µM; in test [3] (Homo sapiens), more than 2 µM; in test [4] (Homo sapiens), more than 2 µM.
With `CC(C)(C)c1cc(-c2ccc(Cl)c(F)c2)nc2cc(C(=O)N3CCN(c4cn[nH]c4)C(=O)C3(C)C)oc12` [Example I-260], the IC50 in test [1] was 0.0033 µM; in test [2], 0.0044 µM; in test [3] (Homo sapiens) it was more than 2 µM; in test [4] (Homo sapiens), more than 2 µM.
With `CC(C)(C)c1cc(-c2ccc(Cl)c(F)c2)nc2cc(C(=O)N3CCN(c4ccnc(C(=O)O)c4)CC3(C)C)oc12` [Example I-261], the IC50 in test [1] was 0.045 µM; in test [2], 0.031 µM; in test [3] (Homo sapiens) it was more than 2 µM; in test [4] (Homo sapiens) it was more than 2 µM.
`CC(C)(C)c1cc(-c2ccc(Cl)cc2)nc2cc(C(=O)N3CCN(c4ccncc4)CC3(C)C)oc12` [Example I-262]: the IC50 in test [1] is 0.77 µM; in test [2], 1.9 µM; in test [3] (Homo sapiens) it was more than 2 µM; in test [4] (Homo sapiens), more than 2 µM.
`Cc1ccc(N2CCN(C(=O)c3cc4nc(-c5ccc(Cl)cc5)cc(C(C)(C)C)c4o3)C(C)(C)C2)nn1` [Example I-263]: the IC50 is 0.0026 µM in test [1], 0.0039 µM in test [2], more than 2 µM in test [3] (Homo sapiens) and more than 2 µM in test [4] (Homo sapiens).
Consider `Cc1cnc(N2CCN(C(=O)c3cc4nc(-c5ccc(Cl)cc5)cc(C(C)(C)C)c4o3)C(C)(C)C2)cn1` [Example I-264], for which the IC50 was 0.015 µM in test [1], 0.018 µM in test [2], more than 2 µM in test [3] (Homo sapiens) and more than 2 µM in test [4] (Homo sapiens).
On to `Cc1cncnc1N1CCN(C(=O)c2cc3nc(-c4ccc(Cl)cc4)cc(C(C)(C)C)c3o2)C(C)(C)C1` [Example I-265], for which the half-inhibitory concentration (IC50) is 0.0058 µM in test [1], 0.0055 µM in test [2], more than 2 µM in test [3] (Homo sapiens) and more than 2 µM in test [4] (Homo sapiens).
As to `Cc1nccnc1N1CCN(C(=O)c2cc3nc(-c4ccc(Cl)cc4)cc(C(C)(C)C)c3o2)C(C)(C)C1` [Example I-266], the IC50 in test [1] was 0.036 µM; in test [2], 0.033 µM; in test [3] (Homo sapiens), more than 2 µM; in test [4] (Homo sapiens), more than 2 µM.
Turning to `CC(C)(C)c1cc(-c2ccc(Cl)c(F)c2)nc2cc(C(=O)N3CCN(c4cccnc4)CC3(C)C)oc12` [Example I-267, [7-tert-butyl-5-(4-chloro-3-fluoro-phenyl)furo[3,2-b]pyridin-2-yl]-[2,2-dimethyl-4-(3-pyridyl)piperazin-1-yl]methanone], the IC50 was 0.033 µM in test [1], 0.025 µM in test [2], more than 2 µM in test [3] (Homo sapiens) and more than 2 µM in test [4] (Homo sapiens).
For the compound `COC(=O)c1cccc(N2CCN(C(=O)c3cc4nc(-c5ccc(Cl)c(F)c5)cc(C(C)(C)C)c4o3)C(C)(C)C2)n1` [Example I-268], the IC50 is 0.0049 µM in test [1], 0.0094 µM in test [2], more than 2 µM in test [3] (Homo sapiens) and more than 2 µM in test [4] (Homo sapiens).
With `CC(C)(C)c1cc(-c2ccc(Cl)cc2)nc2cc(C(=O)N3CCN(c4cccnc4)CC3(C)C)oc12` [Example I-269], the 50% inhibitory concentration (IC50) in test [1] was 0.057 µM; in test [2], 0.041 µM; in test [3] (Homo sapiens), more than 2 µM; in test [4] (Homo sapiens) it was more than 2 µM.
Turning to `CC1(C)CCC(c2cc(C(C)(C)C)c3oc(C(=O)N4CCN(c5ccccn5)CC4(C)C)cc3n2)CC1` [Example I-270], the IC50 in test [1] is 0.021 µM; in test [2], 0.051 µM; in test [3] (Homo sapiens) it was more than 2 µM; in test [4] (Homo sapiens) it was more than 2 µM.
As for `CC(C)(C)c1cc(-c2ccc(Cl)c(F)c2)nc2cc(C(=O)N3CCN(c4ccccn4)CC3(C)C)oc12` [Example I-271], the IC50 in test [1] is 0.0074 µM; in test [2], 0.0078 µM; in test [3] (Homo sapiens), more than 2 µM; in test [4] (Homo sapiens), more than 2 µM.
For the compound `CC(C)(C)c1cc(-c2ccc(Cl)cc2)nc2cc(C(=O)N3CCN(c4ccccn4)CC3(C)C)oc12` [Example I-272], the concentration for half-maximal inhibition (IC50) in test [1] was 0.021 µM; in test [2], 0.014 µM; in test [3] (Homo sapiens), more than 2 µM; in test [4] (Homo sapiens) it was more than 2 µM.
On to `CC(C)(C)c1cc(-c2ccc(Cl)cc2)nc2cc(C(=O)N3CCN(c4cn[nH]c4)CC3(C)C)oc12` [Example I-273], for which the IC50 in test [1] is 0.026 µM; in test [2], 0.014 µM; in test [3] (Homo sapiens), more than 2 µM; in test [4] (Homo sapiens) it was more than 2 µM.
With `CC(C)(C)c1cc(-c2ccc(Cl)cc2)nc2cc(C(=O)N3CCN(c4ccc(C(=O)O)nc4)CC3(C)C)oc12` [Example I-274], the IC50 is 0.061 µM in test [1], 0.034 µM in test [2], more than 2 µM in test [3] (Homo sapiens) and more than 2 µM in test [4] (Homo sapiens).

The values are drawn from patent US20180057505A1, “BICYCLIC HETEROARYL COMPOUNDS USEFUL AS INHIBITORS OF THE PAR-2 SIGNALING PATHWAY” (VERTEX PHARMACEUTICALS INCORPORATED, priority 2015, published 2018).
